Where “and” joins values, the source holds several entries; their conditions need not be identical. Equal values may be shown once. Entries after “also recorded” stand apart in the source; their conditions may differ. Read-outs that look alike come from different tables or passages of the source.
Assays:
[1] = cited from earlier work; for duration of bronchospasmolytic activity, in words: compared with terbutaline or salbutamol
isolated tracheal muscle = experiment: Bronchodilating effect in vitro on isolated guinea-pig trachea (test C1); conditions: for blockade of the bronchodilating effect by propranolol: propranolol 3.10^-6 mol/l (concentration given for I and II); for Potentiating or inhibiting effect on the bronchodilating effect of terbutaline: 5 min pretreatment with test compound; for EC50: Cavia porcellus
Procedure: The trachea from guinea-pigs was dissected out, cut spirally and transferred to a 10 ml organ bath containing Krebs solution of 37° and aerated with carbogen. The tracheal strip was contracted by pilocarpine (4.10^-6 mol/l) producing a tension of about 1.5 g. Isometric recording was made by use of a transducer FTO3 and a Grass polygraph 7D. Before the administration of the test compound the esterase inhibitor eserin was added to the bath in a concentration of 1.10^-6 mol/l. The concentration of the test substances which produces 50% relaxation (EC50) of the pilocarpine contracted trachea was recorded as well as potentiating or inhibiting influence of the test substances of the invention on the relaxing effect of terbutaline. In this last mentioned test the muscle preparation was pretreated with the test compounds during 5 minutes, before the response of terbutaline was recorded.

[2] = tested on: isolated auricles from guinea-pig heart; experiment: In vitro test on isolated guinea-pig auricles (test D1); design: species or system strain Dunkin Hartley; conditions: for Emax: Cavia porcellus; for any chronotropic or inotropic effect: isolated auricles, in words; for potentiating or inhibiting effect on the chronotropic and inotropic effect of terbutaline: same concentration as terbutaline
Procedure: Male guinea-pigs strain Dunkin Hartley (400-500 g) were used. After bleeding and removal of the heart the auricles were dissected free from the ventricular part and submerged into carbogen aerated Krebs solution of 37°. The frequency and force of the spontaneously beating preparation was recorded by a Grass transducer FTO3. In the polygraph (Grass 7D) the signals from the isometric transducer passed a trigger function from the drive amplifier to the tachograph to record the rate.
The esterase inhibitor eserine was added to a concentration of 1.10^-6 mol/l in the organ bath before the drugs to be tested were added. The intrinsic activity of the test compounds on the heart preparation, that is their effect on heart rate (chronotropic effect) and their effect on the force of the heart beats (inotropic effect), and their possible interaction with terbutaline was studied.

heart rate = experiment: In vivo effect of the test compounds on the heart rate in dogs (test D2); design: species or system dog (Beagle); conditions: oral; for Slope of line, increase in heart rate vs. logarithm of corresponding serum conc.: terbutaline 0.01-0.1 mg/kg, compound I 0.3-2.7 mg/kg
Procedure: (§1) Five dogs (Beagle, .male., 13-18 kg) have been used repeatedly in the study. Each dog was used at most once a week. Food was withheld from the animals the night before the experiment (water ad libitum). The test compound was solved or suspended in 8 ml of distilled water, and delivered into the back of the mouth by use of a syringe and a short tube. This oral supply was followed by a water rinse of 8 ml.
The blood was collected from the cephalic veins in the forelegs by use of evacuated tubes. The esterase inhibitor diisopropylfluophosphate (DFP) was added, the samples centrifugated (+5°) and the amount of terbutaline in plasma determined by a massfragmentographic analysis method. The serum level of terbutaline indicates the degree of bronchospasmolytic effect of the test compounds, provided terbutaline is solely responsible for the bronchospasmolytic effect. This method does, however, not measure the intrinsic activity of the test compounds.
(§2) The amounts of the test substances to be administered were selected so that the level of terbutaline, when administered per se, corresponds to the serum levels obtained and found effective in patients at clinical use, that is a level of terbutaline of at least 2 ng/ml serum for 6 to 8 hours. The doses of the test substances of the invention were selected so that the serum levels of terbutaline obtained would correspond approximately with the serum levels obtained after administration of terbutaline per se.
The heart rate was determined by a stethoscope (the mean of three determinations during a 5-minute periode) before the administration of drug and before each blood sampling.
The relative effect of the test compounds on the heart rate of the test animals was illustrated by plotting in a diagram the increase in heart rate measured at a certain serum concentration of terbutaline versus the logarithm of the said terbutaline concentration in serum. Only values before and up to the maximal increase in heart rate were used. This method will produce a graph consisting of a substantially straight line. […]

[3] = tested on: histamine-induced bronchospasm; experiment: Protecting effect against histamine-induced bronchospasm after oral administration (test C2); format: in vivo, guinea-pigs, Dunkin-Hartley strain; conditions: for ED50: Cavia porcellus, 0.05 h, histamine aerosol, read-out: Dose protecting 50% of the test animals for more than 3 minutes (ED50)
Procedure: Male guinea-pigs, Dunkin-Hartley strain, 150-200 g, were used in the study. The animals were starved for about 15 hours (water ad libitum) before the administration, by a stomach tube, of test compound or vehicle (controls). To establish an adequate time period between administration and histamine exposure, the maximum plasma level of terbutaline produced from the hydrolysis of the given pro-drugs of terbutaline was determined. Thus, blood samples (in pre-experimental series) were collected from guinea-pigs at different times after the administration of the test compound and the plasma level of terbutaline was determined by a massfragmentographic assay. A peak in the plasma terbutaline was noted 50-60 minutes after the administration, and this time was selected as time for start of histamine exposure.
The histamine aerosol was generated by Bird inline nebulizers from a solution containing 0.02% histamine-HCl and 3% glycerole. The protecting effect was estimated from the delay in appeareance of signs of anoxia in drug-treated animals. […] Drug-treated guinea-pigs without any signs of respiratory influence from the histamine during these first 3 minutes were denoted as protected.

[4] = tested on: histamine evoked rise of the insufflation pressure; experiment: Duration of bronchospasmolytic activity after local administration via aerosol, histamine-induced bronchoconstriction (test B); format: in vivo, Guinea-pigs, strain Dunkin-Hartley
Procedure: Guinea-pigs, strain Dunkin-Hartley, of either sex, weighing 500-900 g were anaesthetized by i.p. injection and i.v. infusion of pentobarbital. The animals were artifically ventilated with a Braun constant volume respiration pump giving 70 strokes/min and a stroke volume of 0.75 ml/100 g body weight. Intratracheal pressure (insufflation pressure) was measured by use of a T-junction on the tracheal cannula connected to a Statham pressure transducer P23BC. An increase in intratracheal pressure, indicating bronchoconstriction, was elicited by i.v. injection (v. jugularis) of histamine. The constricting agent was injected every 10 minutes by a timer-controlled perfusor in a dose giving about 80% of the maximum contractile response (1-2.10^-8 mol/kg). The bronchospasmolytic drugs to be tested were solved in aq. dest. containing 3% glycerol and nebulized by use of a Bird Inline Nebulizer (air pressure 0.2 MPa; droplet spectrum around 1 micron). The generated aerosol was lead through the respirator and tracheal cannula. Inhalation of drug was going on during periods of 30 min. The resulting bronchodilator effect was calculated from the percentage reduction of the histamine evoked rise of the insufflation pressure.
The concentration of the test substance in the solved composition that when nebulized produced 50% inhibition of the increased tracheal pressure (ED50) was measured. […]

[5] = Duration of serum levels of terbutaline after oral administration to unanaesthetized dogs (test A); format: in vivo, dog (Beagle); conditions: p.o., >= 2 ng/ml serum
Procedure: A. Duration of serum levels of terbutaline after administration of compounds of the invention to unanaesthetized dogs
as §1
The blood was collected from the cephalic veins in the forelegs by use of evacuated tubes. The esterase inhibitor diisopropylfluophosphate (DFP) was added, the samples centrifugated (+5°) and the most amount of terbutaline in plasma determined by a massfragmentographic analysis method.
as §2

[6] = read-out: chromotropic effect on isolated auricle (relative values)
[7] = read-out: inotropic effect on isolated auricle (relative values)
[8] = isolated trachea, Table 3, read-out: concentration producing a bronchodilating effect
[9] = pilocarpine contracted trachea (4.10^-6 mol/l), eserin 1.10^-6 mol/l, read-out: Concentration of test substance producing 50% relaxation of trachea (EC50)

CC(C)(C)NCC(O)c1cc(O)cc(O)c1 (stereo not drawn) [terbutaline, reference compound]
serum concentration necessary for desired therapeutic activity ([1]; Hornblad et al.): at least 2 ng/ml
blockade of the bronchodilating effect by propranolol (isolated tracheal muscle): blocked
Emax [2, 6]: 100%
Emax [2, 7]: 100%
Slope of line, increase in heart rate vs. logarithm of corresponding serum conc. (heart rate): 1.04

Cc1ccc(C(=O)Oc2ccc(C(O)CNC(C)(C)C)cc2OC(=O)c2ccc(C)cc2)cc1 (stereo not drawn) [bitolterol]
duration of bronchospasmolytic activity, in words [1]: comparable with that of salbutamol

CC(C)C(=O)Oc1ccc(C(=O)Oc2cc(OC(=O)c3ccc(OC(=O)C(C)C)cc3)cc(C(O)CNC(C)(C)C)c2)cc1 (stereo not drawn) [II]
Potentiating or inhibiting effect on the bronchodilating effect of terbutaline (isolated tracheal muscle): none and No potentiating or inhibiting activity
EC50 (isolated tracheal muscle; [8]): ~1800 nM
EC50 (isolated tracheal muscle; [9]): 1800 ± 600 nM
concentration range for bronchodilating effect relative to terbutaline (isolated tracheal muscle; isolated trachea): about 9 times higher
blockade of the bronchodilating effect by propranolol (isolated tracheal muscle): not blocked
protection against histamine-induced bronchospasm on molar basis relative to terbutaline [3]: about equally effective as terbutaline
ED50 [3]: 1.1 mg/kg and 1.6 µmol/kg
Emax [2, 6]: 0%
Emax [2, 7]: 0%
any chronotropic or inotropic effect [2]: none
potentiating or inhibiting effect on the chronotropic and inotropic effect of terbutaline [2]: No potentiating or inhibiting effect

CC(C)(C)NCC(O)c1ccc(O)c(CO)c1 (stereo not drawn) [salbutamol]
duration of bronchospasmolytic activity, in words [1]: about equal to the duration of terbutaline

CC(C)(C)NCC(O)c1cc(OC(=O)c2ccc(OC(=O)C(C)(C)C)cc2)cc(OC(=O)c2ccc(OC(=O)C(C)(C)C)cc2)c1 (stereo not drawn) [Compound I]
onset of effect [4]: comparable to that produced by terbutaline
duration of bronchospasmolytic effect compared with terbutaline ([4]; at ED50 dose level): about three times longer
time with clinically useful serum level of terbutaline relative to terbutaline [5]: at least twice as long
time with a serum level of terbutaline of 2 ng/ml or more ([5]; listed as compound I): 16 h
Potentiating or inhibiting effect on the bronchodilating effect of terbutaline (isolated tracheal muscle): none and No potentiating or inhibiting activity
EC50 (isolated tracheal muscle; [8]): ~1800 nM
EC50 (isolated tracheal muscle; [9]): 1800 ± 600 nM
concentration range for bronchodilating effect relative to terbutaline (isolated tracheal muscle; isolated trachea): about 9 times higher
blockade of the bronchodilating effect by propranolol (isolated tracheal muscle): not blocked
protection against histamine-induced bronchospasm on molar basis relative to terbutaline [3]: about equally effective as terbutaline
ED50 [3]: 1.1 mg/kg and 1.6 µmol/kg
Emax [2, 6]: 0%
Emax [2, 7]: 0%
any chronotropic or inotropic effect [2]: none
potentiating or inhibiting effect on the chronotropic and inotropic effect of terbutaline [2]: No potentiating or inhibiting effect
increase in heart rate relative to terbutaline (heart rate; dogs): relatively much lower; also recorded: considerably reduced
Slope of line, increase in heart rate vs. logarithm of corresponding serum conc. (heart rate): 0.53

CC(C)(C)NCC(O)c1cc(OC(=O)c2ccc(OC(=O)C(C)(C)C)cc2)cc(OC(=O)c2ccc(OC(=O)C(C)(C)C)cc2)c1 (stereo not drawn) [test substance of the invention]
time with a serum level of terbutaline of 2 ng/ml or more [5]: about 16 hours
